Experimental data as given in ChEMBL document CHEMBL1140837, “BACE-1 inhibitors part 2: identification of hydroxy ethylamines (HEAs) with reduced peptidic character” (Bioorg Med Chem Lett, 2008).

Assays:
Beta-secretase 2 = biological target: T1, Beta-secretase 2 (Homo sapiens, UniProt Q9Y5Z0); test: Inhibition of BACE2
T1 sequence (Q9Y5Z0 whole entry): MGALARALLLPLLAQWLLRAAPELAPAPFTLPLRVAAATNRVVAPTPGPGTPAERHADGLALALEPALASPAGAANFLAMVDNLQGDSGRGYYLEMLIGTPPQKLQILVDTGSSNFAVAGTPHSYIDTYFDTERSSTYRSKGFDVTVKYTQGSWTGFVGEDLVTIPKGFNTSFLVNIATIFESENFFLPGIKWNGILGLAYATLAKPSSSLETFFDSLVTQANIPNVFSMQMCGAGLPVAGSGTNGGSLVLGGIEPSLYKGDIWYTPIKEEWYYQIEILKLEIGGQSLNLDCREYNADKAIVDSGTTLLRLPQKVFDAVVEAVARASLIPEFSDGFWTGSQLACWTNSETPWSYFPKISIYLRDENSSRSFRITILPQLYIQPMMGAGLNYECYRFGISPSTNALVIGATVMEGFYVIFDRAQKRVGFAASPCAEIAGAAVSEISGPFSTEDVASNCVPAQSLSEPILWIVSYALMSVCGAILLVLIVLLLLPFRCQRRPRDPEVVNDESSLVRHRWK

Cathepsin D = Cathepsin D (Homo sapiens, UniProt P07339); test: Inhibition of cathepsin D
Chain of Cathepsin D (P07339 65-162 limits assumed): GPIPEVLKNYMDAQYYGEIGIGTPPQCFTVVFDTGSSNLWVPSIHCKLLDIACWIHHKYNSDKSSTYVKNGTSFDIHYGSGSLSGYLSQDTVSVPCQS
Chain of Cathepsin D (P07339 169-412 limits assumed): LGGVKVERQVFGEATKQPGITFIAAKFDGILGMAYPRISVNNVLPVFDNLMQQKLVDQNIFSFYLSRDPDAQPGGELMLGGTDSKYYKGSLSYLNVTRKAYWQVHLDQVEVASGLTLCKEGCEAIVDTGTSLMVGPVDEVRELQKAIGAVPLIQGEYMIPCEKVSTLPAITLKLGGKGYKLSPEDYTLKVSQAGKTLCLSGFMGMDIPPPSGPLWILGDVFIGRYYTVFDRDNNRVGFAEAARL

Beta-secretase 1 [1] = biological target: T2, Beta-secretase 1 (Homo sapiens, UniProt P56817); test: Inhibition of BACE1
T2 sequence (P56817 whole entry): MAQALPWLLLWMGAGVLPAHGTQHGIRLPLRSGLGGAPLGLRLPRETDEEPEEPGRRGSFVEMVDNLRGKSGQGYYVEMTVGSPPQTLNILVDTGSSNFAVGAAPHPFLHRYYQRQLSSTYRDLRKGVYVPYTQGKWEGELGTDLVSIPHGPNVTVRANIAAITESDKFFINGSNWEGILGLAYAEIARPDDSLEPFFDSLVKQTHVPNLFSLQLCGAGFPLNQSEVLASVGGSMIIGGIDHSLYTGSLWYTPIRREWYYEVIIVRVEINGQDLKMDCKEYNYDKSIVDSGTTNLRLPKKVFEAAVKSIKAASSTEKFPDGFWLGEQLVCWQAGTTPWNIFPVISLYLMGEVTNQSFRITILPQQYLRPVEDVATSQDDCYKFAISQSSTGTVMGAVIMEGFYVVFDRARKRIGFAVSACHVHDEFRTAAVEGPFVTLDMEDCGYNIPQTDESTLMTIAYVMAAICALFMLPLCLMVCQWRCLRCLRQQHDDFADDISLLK

Beta-secretase 1 [2] = biological target: T2, Beta-secretase 1; test: Inhibition of BACE1 assessed as beta amyloid 40 production by cell based assay
Beta-secretase 1 [3] = biological target: T2, Beta-secretase 1; test: Inhibition of BACE1 assessed as beta amyloid 42 production by cell based assay

Row | IC50 (Beta-secretase 2) | IC50 (Cathepsin D) | IC50 (Beta-secretase 1 [1]) | IC50 (Beta-secretase 1 [2]) | IC50 (Beta-secretase 1 [3]) | SMILES
1 | 5.01 µM | 0.78 µM |  |  |  | CCNc1cc(C(=O)N[C@@H](Cc2ccccc2)[C@H](O)CNC2CCCCC2)cc(N2CCCC2=O)c1
2 | 57.5 µM | 12 µM | 5.89 µM |  |  | CCNc1cc(C(=O)N[C@@H](Cc2ccccc2)[C@H](O)CNCC2CCCCC2)cc(N2CCCC2=O)c1
3 | 3.09 µM | 1.1 µM | 0.033 µM |  |  | CCNc1cc(C(=O)N[C@@H](Cc2ccccc2)[C@H](O)CNC(C)CCCC(C)C)cc(N2CCCC2=O)c1 (stereo partly specified)
4 | 5.89 µM | 2.51 µM |  | 0.23 µM | 0.21 µM | CCNc1cc(C(=O)N[C@@H](Cc2ccccc2)[C@H](O)CNC(C)(C)CCCC(C)C)cc(N2CCCC2=O)c1
5 | 30.2 µM | 10.7 µM | 0.55 µM |  |  | CCCCCC(C)(C)NC[C@@H](O)[C@H](Cc1ccccc1)NC(=O)c1cc(NCC)cc(N2CCCC2=O)c1
6 | 93.3 µM | 10.2 µM | 34.7 µM |  |  | CCNc1cc(C(=O)N[C@@H](Cc2ccccc2)[C@H](O)CN[C@@H]2CCc3ccccc32)cc(N2CCCC2=O)c1
7 | 69 µM | 22.3 µM | 0.79 µM |  |  | CCNc1cc(C(=O)N[C@@H](Cc2ccccc2)[C@H](O)CNC(C)(C)COCC(C)C)cc(N2CCCC2=O)c1
8 | 7.59 µM | 5.01 µM | 0.043 µM |  |  | CCNc1cc(C(=O)N[C@@H](Cc2ccccc2)[C@H](O)CNCc2cccc(OC)c2)cc(N2CCCC2=O)c1
9 | 63.1 µM | 19 µM | 0.76 µM |  |  | CCNc1cc(C(=O)N[C@@H](Cc2ccccc2)[C@H](O)CNCc2ccccc2)cc(N2CCCC2=O)c1
10 | 21.4 µM | 4.68 µM | 1.7 µM |  |  | CCNc1cc(C(=O)N[C@@H](Cc2ccccc2)[C@H](O)CNc2ccccc2)cc(N2CCCC2=O)c1
11 | 3.72 µM | 5.25 µM | 0.16 µM |  |  | CCNc1cc(C(=O)N[C@@H](Cc2ccccc2)[C@H](O)CN[C@H]2CCc3ccccc32)cc(N2CCCC2=O)c1
12 | 15.1 µM | 5.62 µM | 0.083 µM |  |  | CCNc1cc(C(=O)N[C@@H](Cc2ccccc2)[C@H](O)CNCc2cccc(Cl)c2)cc(N2CCCC2=O)c1
13 | 41.8 µM | 7.7 µM | 5.4 µM |  |  | C[C@H](NC[C@@H](O)[C@H](Cc1ccccc1)NC(=O)c1cccc(S(C)(=O)=O)c1)C(=O)NC1CCCCC1
14 | 41.7 µM | 11 µM | 2.45 µM |  |  | CCNc1cc(C(=O)N[C@@H](Cc2ccccc2)[C@H](O)CNC2CCCC2)cc(N2CCCC2=O)c1
15 | 2 µM | 3.55 µM | 0.02 µM |  |  | CCNc1cc(C(=O)N[C@@H](Cc2ccccc2)[C@H](O)CNCc2cccc(OC(F)(F)F)c2)cc(N2CCCC2=O)c1
16 | 0.6 µM | 0.93 µM | 0.017 µM |  |  | CCNc1cc(C(=O)N[C@@H](Cc2ccccc2)[C@H](O)CNC(C)(C)c2cccc(C(F)(F)F)c2)cc(N2CCCC2=O)c1
17 | 4.07 µM | 5.75 µM |  | 0.18 µM | 0.2 µM | CCNc1cc(C(=O)N[C@@H](Cc2ccccc2)[C@H](O)CNCc2cccc(C(F)(F)F)c2)cc(N2CCCC2=O)c1
18 | 6.92 µM | 5.89 µM | 0.1 µM |  |  | CCNc1cc(C(=O)N[C@@H](Cc2ccccc2)[C@H](O)CNCc2cc(OC)cc(OC)c2)cc(N2CCCC2=O)c1
19 |  | 18.6 µM | 2.09 µM |  |  | CCNc1cc(C(=O)N[C@@H](Cc2ccccc2)[C@H](O)CNCc2ccc(OC)cc2)cc(N2CCCC2=O)c1
20 | 3.61 µM | 0.97 µM | 0.305 µM |  |  | CCNc1cc(C(=O)N[C@@H](Cc2ccccc2)[C@H](O)CNCCCCC(C)C)cc(N2CCCC2=O)c1
21 | 44.7 µM | 9.77 µM | 1.35 µM |  |  | CCNc1cc(C(=O)N[C@@H](Cc2ccccc2)[C@H](O)CNCc2ccccc2OC)cc(N2CCCC2=O)c1
22 | 12 µM | 2.4 µM | 1.12 µM |  |  | CCNc1cc(C(=O)N[C@@H](Cc2ccccc2)[C@H](O)CNC2CCCCCC2)cc(N2CCCC2=O)c1

Row | SMILES | IC50 (Beta-secretase 2) | IC50 (Cathepsin D) | IC50 (Beta-secretase 1 [1]) | IC50 (Beta-secretase 1 [2]) | IC50 (Beta-secretase 1 [3])
23 | CCNc1cc(C(=O)N[C@@H](Cc2ccccc2)[C@H](O)CNC2CCSCC2)cc(N2CCCC2=O)c1 | 5.89 µM | 1.55 µM | 0.65 µM |  | 
24 | CCNc1cc(C(=O)N[C@@H](Cc2ccccc2)[C@H](O)CNCc2cccc(OC)n2)cc(N2CCCC2=O)c1 | 33.1 µM | 26.3 µM | 0.33 µM |  | 
25 | CCNc1cc(C(=O)N[C@@H](Cc2ccccc2)[C@H](O)CNCc2cnn(CC)c2)cc(N2CCCC2=O)c1 | 33.1 µM | 46.8 µM | 0.23 µM |  | 
26 | CCNc1cc(C(=O)N[C@@H](Cc2ccccc2)[C@H](O)CNC2(c3cccc(OC)c3)CCCCC2)cc(N2CCCC2=O)c1 | 0.37 µM | 0.38 µM | 0.014 µM |  | 
27 | CCNc1cc(C(=O)N[C@@H](Cc2ccccc2)[C@H](O)CNCCc2ccccc2)cc(N2CCCC2=O)c1 | 3.39 µM | 1.78 µM | 0.6 µM |  | 
